Measurements taken from patent US9840498B2, “Substituted quinazolin-4-one derivatives” (NOVARTIS AG, priority 2013, dated 2017).

How the values were obtained:
PI3K alpha = PI3K alpha (Homo sapiens (Human), UniProt P42336); experiment: Biochemical assay for PI3Kalpha (Kinase-Glo format); details: enzymatic assay
Description: 1.1 Generation of Gene Constructs, Protein Expression and Purification
For the enzymatic assays, the preparation of PI3K gene constructs, protein expression and purification for HTS are described in WO2012/004299.
1.2 Biochemical Assays for PI3Kalpha, PI3Kbeta (Kinase-Glo Format)
The kinase reaction is performed in a final volume of 50 μl per well of a half area COSTAR, 96 well plate. The final concentrations of ATP and phosphatidyl inositol in the assay are 5 μM and 6 μg/mL, respectively. The reaction is started by the addition of PI3 kinase, e.g. PI3 kinase α.
The components of the assay are added per well as follows: • 10 μl test compound in 5% DMSO per well in […]. • Total activity is determined by addition 10 μl of 5% vol/vol DMSO in the first 4 wells of column 1 and the last 4 wells of column 12. • The background is determined by addition of 10 μM control compound to the last 4 wells of column 1 and the first 4 wells of column 12. • 2 mL ‘Assay mix’ are prepared per plate: • 1.912 mL of HEPES assay buffer • 8.33 μl of 3 mM stock of ATP giving a final concentration of 5 μM per well • 1 μl of [^33P]ATP on the activity date giving 0.05 μCi per well • 30 μl of 1 mg/mL PI stock giving a final concentration of 6 μg/mL per well • 5 μl of 1 M stock MgCl2 giving a final concentration of 1 mM per well • 20 μl of the assay mix are added per well. • 2 mL ‘Enzyme mix’ are prepared per plate (x* μl PI3 kinase p110α in 2 mL of kinase buffer). The ‘Enzyme mix’ is kept on ice during addition to the assay plates. * The volume of enzyme is dependent on the enzymatic activity of the batch in use. • 20 μl ‘Enzyme mix’ are added/well to start the reaction. • The plate is then incubated at room temperature for 90 minutes. • The reaction is terminated by the addition of 50 μl WGA-SPA bead (wheat germ agglutinin-coated Scintillation Proximity Assay beads) suspension per well. • The assay plate is sealed using TopSeal-S (heat seal for polystyrene microplates, PerkinElmer LAS [Deutschland] GmbH, Rodgau, Germany) and incubated at room temperature for at least 60 minutes. • The assay plate is then centrifuged at 1500 rpm for 2 minutes using the Jouan bench top centrifuge (Jouan Inc., Nantes, France). • The assay plate is counted using a Packard TopCount, each well being counted for 20 seconds.
In a more preferred assay, the kinase reaction is performed in a final volume of 10 μl per well of a low volume non-binding CORNING, 384 well black plate (Cat. No. #3676). The final concentrations of ATP and phosphatidyl inositol (PI) in the assay are 1 μM and 10 μg/mL, respectively. The reaction is started by the addition of ATP.
The components of the assay are added per well as follows: […]

[1] = biological target: human phosphoinositide-3 kinase (PI3K) alpha (Homo sapiens (Human), UniProt P42336); experiment: PI3K-mediated Akt 1/2 (S473) phosphorylation in Rat-1 cells overexpressing PI3K alpha; assay type: cell-based, rat cells expressing human PI3K alpha; details: cellular assay, p-AKT(Ser473), read-out: Cell PI3K alpha IC50
[2] = biological target: human phosphoinositide-3 kinase (PI3K) delta (Homo sapiens (Human), UniProt O00329); experiment: PI3K-mediated Akt 1/2 (S473) phosphorylation in Rat-1 cells overexpressing PI3K delta; assay type: cell-based; details: cellular assay, p-AKT(Ser473), read-out: Cell PI3K delta IC50
human phosphoinositide-3 kinase (PI3K) delta, sequence (O00329 whole entry): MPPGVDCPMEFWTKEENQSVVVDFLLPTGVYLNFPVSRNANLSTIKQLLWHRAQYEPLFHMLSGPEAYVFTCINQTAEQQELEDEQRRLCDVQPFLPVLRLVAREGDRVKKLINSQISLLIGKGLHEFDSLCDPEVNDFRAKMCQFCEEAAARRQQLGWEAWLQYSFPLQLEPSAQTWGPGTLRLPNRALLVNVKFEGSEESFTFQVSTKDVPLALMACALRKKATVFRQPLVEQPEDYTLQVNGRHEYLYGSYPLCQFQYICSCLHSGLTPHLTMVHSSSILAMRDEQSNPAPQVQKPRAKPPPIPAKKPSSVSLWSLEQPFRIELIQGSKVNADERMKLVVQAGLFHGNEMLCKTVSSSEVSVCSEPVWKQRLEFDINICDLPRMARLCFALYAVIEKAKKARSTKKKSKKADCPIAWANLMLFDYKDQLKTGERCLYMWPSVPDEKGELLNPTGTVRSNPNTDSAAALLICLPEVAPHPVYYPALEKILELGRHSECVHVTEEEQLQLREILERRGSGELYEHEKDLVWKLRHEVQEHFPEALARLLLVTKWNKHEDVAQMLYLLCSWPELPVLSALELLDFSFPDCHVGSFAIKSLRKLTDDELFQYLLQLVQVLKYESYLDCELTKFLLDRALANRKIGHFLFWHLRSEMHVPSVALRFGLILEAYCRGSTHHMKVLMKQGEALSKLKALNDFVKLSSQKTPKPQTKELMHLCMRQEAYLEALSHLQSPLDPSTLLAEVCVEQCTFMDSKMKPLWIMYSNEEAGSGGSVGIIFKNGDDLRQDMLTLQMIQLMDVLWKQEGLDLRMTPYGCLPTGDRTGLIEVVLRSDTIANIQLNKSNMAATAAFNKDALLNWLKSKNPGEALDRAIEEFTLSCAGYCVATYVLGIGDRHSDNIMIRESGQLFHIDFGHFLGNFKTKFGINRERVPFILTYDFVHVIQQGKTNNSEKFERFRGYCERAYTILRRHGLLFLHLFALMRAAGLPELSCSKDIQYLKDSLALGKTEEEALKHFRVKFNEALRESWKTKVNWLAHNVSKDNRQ
human phosphoinositide-3 kinase (PI3K) delta, sequence (Q63787 whole entry partner): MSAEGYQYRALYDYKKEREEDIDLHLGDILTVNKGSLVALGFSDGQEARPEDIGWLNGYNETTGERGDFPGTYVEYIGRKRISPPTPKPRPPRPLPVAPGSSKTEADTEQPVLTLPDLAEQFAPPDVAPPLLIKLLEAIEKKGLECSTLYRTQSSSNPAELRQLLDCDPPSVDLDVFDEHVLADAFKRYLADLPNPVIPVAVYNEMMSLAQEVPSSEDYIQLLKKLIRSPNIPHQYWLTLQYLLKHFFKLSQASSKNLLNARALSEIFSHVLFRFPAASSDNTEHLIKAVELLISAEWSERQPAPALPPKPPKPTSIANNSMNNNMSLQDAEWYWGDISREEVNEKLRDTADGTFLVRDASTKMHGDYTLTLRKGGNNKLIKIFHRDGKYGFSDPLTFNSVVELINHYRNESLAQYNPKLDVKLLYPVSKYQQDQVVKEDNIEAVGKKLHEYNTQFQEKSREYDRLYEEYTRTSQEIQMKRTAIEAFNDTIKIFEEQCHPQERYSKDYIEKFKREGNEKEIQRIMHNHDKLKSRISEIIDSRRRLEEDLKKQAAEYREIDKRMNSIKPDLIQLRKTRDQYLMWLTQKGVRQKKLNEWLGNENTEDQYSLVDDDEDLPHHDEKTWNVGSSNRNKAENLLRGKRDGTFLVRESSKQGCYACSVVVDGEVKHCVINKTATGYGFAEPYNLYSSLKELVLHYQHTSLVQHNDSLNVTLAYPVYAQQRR

human phosphoinositide-3 kinase (PI3K) alpha, sequence (P42336 whole entry): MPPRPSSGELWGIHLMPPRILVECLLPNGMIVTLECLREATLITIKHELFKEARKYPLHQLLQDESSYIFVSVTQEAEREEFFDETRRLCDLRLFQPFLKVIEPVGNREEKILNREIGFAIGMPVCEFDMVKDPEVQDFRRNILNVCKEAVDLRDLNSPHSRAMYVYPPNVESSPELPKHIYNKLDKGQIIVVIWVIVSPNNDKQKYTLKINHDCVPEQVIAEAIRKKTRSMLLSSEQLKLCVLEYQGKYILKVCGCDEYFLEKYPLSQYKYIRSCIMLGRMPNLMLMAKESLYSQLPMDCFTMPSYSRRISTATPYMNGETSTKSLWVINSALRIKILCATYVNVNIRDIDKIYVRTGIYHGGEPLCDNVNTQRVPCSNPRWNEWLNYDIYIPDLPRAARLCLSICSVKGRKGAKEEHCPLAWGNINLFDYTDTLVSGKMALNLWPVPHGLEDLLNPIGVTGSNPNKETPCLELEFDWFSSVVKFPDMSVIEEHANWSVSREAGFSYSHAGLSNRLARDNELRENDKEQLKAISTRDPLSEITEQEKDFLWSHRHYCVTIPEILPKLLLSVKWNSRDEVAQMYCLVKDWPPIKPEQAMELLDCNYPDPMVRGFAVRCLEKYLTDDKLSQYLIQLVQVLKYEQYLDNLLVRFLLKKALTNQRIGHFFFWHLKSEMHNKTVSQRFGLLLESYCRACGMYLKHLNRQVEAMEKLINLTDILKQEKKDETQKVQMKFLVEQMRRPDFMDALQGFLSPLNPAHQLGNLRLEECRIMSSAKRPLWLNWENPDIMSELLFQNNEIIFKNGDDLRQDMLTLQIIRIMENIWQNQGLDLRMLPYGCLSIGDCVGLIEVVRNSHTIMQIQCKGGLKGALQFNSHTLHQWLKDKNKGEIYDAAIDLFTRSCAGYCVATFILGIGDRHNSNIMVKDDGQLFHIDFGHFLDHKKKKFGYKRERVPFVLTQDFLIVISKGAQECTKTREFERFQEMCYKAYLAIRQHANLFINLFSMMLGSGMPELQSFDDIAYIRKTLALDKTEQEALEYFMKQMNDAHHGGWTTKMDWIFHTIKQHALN
human phosphoinositide-3 kinase (PI3K) alpha, sequence (Q63787 whole entry partner): as the sequence (Q63787 whole entry partner) above
PI3K alpha, sequence (P42336 21-1068): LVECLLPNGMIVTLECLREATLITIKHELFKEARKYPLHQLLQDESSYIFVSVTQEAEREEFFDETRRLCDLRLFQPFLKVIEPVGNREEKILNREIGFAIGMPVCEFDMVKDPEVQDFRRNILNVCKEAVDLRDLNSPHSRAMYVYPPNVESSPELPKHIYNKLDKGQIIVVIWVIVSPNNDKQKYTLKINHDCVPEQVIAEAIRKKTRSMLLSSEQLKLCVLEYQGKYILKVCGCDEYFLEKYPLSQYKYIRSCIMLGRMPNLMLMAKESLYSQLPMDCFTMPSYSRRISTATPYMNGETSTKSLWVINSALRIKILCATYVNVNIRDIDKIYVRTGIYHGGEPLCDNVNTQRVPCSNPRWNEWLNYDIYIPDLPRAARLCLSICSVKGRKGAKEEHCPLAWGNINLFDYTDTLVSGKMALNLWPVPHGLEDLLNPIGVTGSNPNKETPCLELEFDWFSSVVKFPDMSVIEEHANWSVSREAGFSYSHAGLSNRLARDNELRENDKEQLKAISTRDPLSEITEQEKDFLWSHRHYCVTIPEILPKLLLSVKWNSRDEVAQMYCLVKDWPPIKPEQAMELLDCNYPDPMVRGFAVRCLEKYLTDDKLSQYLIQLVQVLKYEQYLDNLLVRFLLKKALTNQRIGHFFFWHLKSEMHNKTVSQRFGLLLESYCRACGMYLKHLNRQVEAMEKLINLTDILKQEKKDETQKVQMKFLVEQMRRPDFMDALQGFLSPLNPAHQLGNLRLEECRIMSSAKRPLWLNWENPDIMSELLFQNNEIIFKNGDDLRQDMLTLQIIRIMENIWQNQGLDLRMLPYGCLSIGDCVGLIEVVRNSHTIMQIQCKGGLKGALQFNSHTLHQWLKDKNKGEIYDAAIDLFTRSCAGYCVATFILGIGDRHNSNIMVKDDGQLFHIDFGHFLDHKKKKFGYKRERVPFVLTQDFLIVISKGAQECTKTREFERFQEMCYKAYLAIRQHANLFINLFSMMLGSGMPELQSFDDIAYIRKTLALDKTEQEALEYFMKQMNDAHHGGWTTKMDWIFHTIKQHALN
PI3K alpha, sequence (P27986 461-568 partner): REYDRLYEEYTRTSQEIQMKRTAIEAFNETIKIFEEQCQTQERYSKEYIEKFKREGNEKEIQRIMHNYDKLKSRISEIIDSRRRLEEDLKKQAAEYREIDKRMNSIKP

SMILES | IC50 (PI3K alpha) [µM] | IC50 [1] [µM] | IC50 [2] [µM]
CO[C@H]1C[C@@H](c2nc3cccc(-c4cnn(C)c4)c3c(=O)n2-c2ccccc2)N(c2nc(N)nc(C)c2C#N)C1 [Example 10, 2-Amino-4-((2S,4S)-4-methoxy-2-(5-(1-methyl-1H-pyrazol-4-yl)-4-oxo-3-phenyl-3,4-dihydroquinazolin-2-yl)pyrrolidin-1-yl)-6-methylpyrimidine-5-carbonitrile] | 1.3 | 3.9 | 0.06
Cc1nc(N)nc(N2CCC[C@H]2c2nc3cccc(-c4cncnc4)c3c(=O)n2-c2ccccc2)c1C#N [Example 17, (S)-2-Amino-4-methyl-6-(2-(4-oxo-3-phenyl-5-(pyrimidin-5-yl)-3,4-dihydroquinazolin-2-yl)pyrrolidin-1-yl)pyrimidine-5-carbonitrile] | 1.2 | 5.8 | < 0.003
Cc1ccccc1-n1c([C@@H]2CCCN2c2ncnc(N)c2C#N)nc2cccc(-c3cnn(C)c3)c2c1=O [Example 14, (S)-4-Amino-6-(2-(5-(1-methyl-1H-pyrazol-4-yl)-4-oxo-3-(otolyl)-3,4-dihydroquinazolin-2-yl)pyrrolidin-1-yl)pyrimidine-5-carbonitrile] | 0.92 | 3.3 | 0.008

The remaining lines, values ahead:

IC50 (PI3K alpha) [µM] | IC50 [1] [µM] | IC50 [2] [µM] | SMILES
0.24 | > 10 | 0.09 | Cc1nc(N)nc(N2C[C@@H](O)C[C@H]2c2nc3cccc(-c4cnn(CCO)c4)c3c(=O)n2-c2ccccc2)c1C#N [Example 28, 2-Amino-4-((2S,4S)-4-hydroxy-2-(5-(1-(2-hydroxyethyl)-1H-pyrazol-4-yl)-4-oxo-3-phenyl-3,4-dihydroquinazolin-2-yl)pyrrolidin-1-yl)-6-methylpyrimidine-5-carbonitrile]
0.49 | 2.4 | < 0.003 | CCOc1ncc(-c2cccc3nc([C@@H]4CCCN4c4nc(N)nc(C)c4C#N)n(-c4ccccc4)c(=O)c23)cn1 [Example 32, (S)-2-Amino-4-(2-(5-(2-ethoxypyrimidin-5-yl)-4-oxo-3-phenyl-3,4-dihydroquinazolin-2-yl)pyrrolidin-1-yl)-6-methylpyrimidine-5-carbonitrile]
0.17 | 5 | < 0.003 | Cc1nc(N)nc(N2C[C@@H](O)C[C@H]2c2nc3cccc(-c4cccnc4)c3c(=O)n2-c2ccccc2)c1C#N [Example 24, 2-Amino-4-((2S,4S)-4-hydroxy-2-(4-oxo-3-phenyl-5-(pyridin-3-yl)-3,4-dihydroquinazolin-2-yl)pyrrolidin-1-yl)-6-methylpyrimidine-5-carbonitrile]
